# Measured values taken from patent publication US20220409727A1, “Metal Complexes Bearing Bisstyryl-Bipyridine Ligand and Their Use as Photosensitizer Agent in One and Two-Photon Photodynamic Therapy” (Paris Sciences et Lettres, priority 2019, published 2022).
# Where two headings read alike, the source gives them in different places.
# Tests used:
# [1] = Emission measurement in CH3CN; assay type: physicochemical; conditions: room temperature, excitation at 355 nm
# Experimental: The absorption of the samples was measured with a SpectraMax M2 Spectrometer (Molecular Devices). The emission was measured by irradiation of the sample in fluorescence quartz cuvettes (width 1 cm) using a NT342B Nd-YAG pumped optical parametric oscillator (Ekspla) at 355 nm. Luminescence was focused and collected at right angle to the excitation pathway and directed to a Princeton Instruments Acton SP-2300i monochromator. As a detector, a XPI-Max 4 CCD camera (Princeton Instruments) has been used.
# [2] = Luminescence quantum yield measurements; assay type: physicochemical; parameters: key: fraction, relative to [Ru(bipy)3]Cl2 reference in CH3CN (Φem=5.9%); conditions: CH3CN, room temperature, excitation at 355 nm
# Experimental: For the determination of the luminescence quantum yield, the samples were prepared in an CH3CN solution with an absorbance of 0.1 at 355 nm. This solution was irradiated in fluorescence quartz cuvettes (width 1 cm) using a NT342B Nd-YAG pumped optical parametric oscillator (Ekspla) at 355 nm. The emission signal was focused and collected at right angle to the excitation pathway and directed to a Princeton Instruments Acton SP-2300i monochromator. As a detector a XPI-Max 4 CCD camera (Princeton Instruments) has been used. The luminescence quantum yields were determined by comparison with the reference [Ru(bipy)3]Cl2 in CH3CN (Φem=5.9%) (Nakamaru, K., 1982) applying the following formula:
# Φem, sample=Φem, reference*(Freference/Fsample)*(Isample/Ireference)*(nsample/nreference)^2
# Φem=luminescence quantum yield, F=fraction of light absorbed, I=integrated emission intensities, n=refractive index, A=absorbance of the sample at irradiation wavelength.
# [3] = system: human glioblastoma astrocytoma (U373) cells; assay: (Photo-)cytotoxicity on 2D cell monolayers, resazurin assay, U373; conditions: for PI (480 nm): U373, dark vs 480 nm (10 min, 3.1 J/cm^2); for PI (540 nm): U373, dark vs 540 nm (40 min, 9.5 J/cm^2); for IC50: compounds 1-3 as chloride salts
# Experimental: (§1) The human glioblastoma astrocytoma (U373) cell line was cultured in MEM medium supplemented with 10% FBS, 1% NEAA (non-essential amino-acids) and 1% penicillin/streptomycin. […] The human retinal epithelial cells (RPE-1, non-cancerous cells immortalized with hTERT) were cultured in DMEM-F12 medium supplemented with 10% FBS and 1% penicillin/streptomycin. All cell lines were obtained from the American Type Culture Collection (ATCC) and cultured at 37° C. and 5% CO2. Before an experiment, the cells were passaged three times.
# (§2) The cytotoxicity of the compounds was assessed by measuring cell viability using a fluorometric resazurin assay. The cultivated cells were seeded in triplicates in 96 well plates with a density of 4000 cells per well in 100 μL of media. After 24 h, the medium was removed and the cells were treated with increasing concentrations of the compound diluted in cell media achieving a total volume of 200 μL. The cells were incubated with the compound for 4 h. After this time, the media was removed and replaced with 200 μL of fresh medium. For the phototoxicity studies, the cells were exposed to light with an Atlas Photonics LUMOS BIO irradiator. Each well was constantly illuminated with either a 480 nm or 540 nm irradiation. During this time, the temperature was maintained constantly at 37° C. The cells were grown in the incubator for additional 44 h. For the determination of the dark cytotoxicity, the cells were not irradiated and after the medium exchange directly incubated for 44 h. After this time, the medium was replaced with fresh medium containing resazurin with a final concentration of 0.2 mg/mL. After 4 h incubation, the amount of the fluorescent product resorufin was determined upon excitation at 540 nm and measurement its emission at 590 nm using a SpectraMax M2 Microplate Reader (Molecular Devices).
# (§3) The obtained data was analyzed with the GraphPad Prism software.
# [4] = Luminescence lifetime measurements; assay type: physicochemical; conditions: excitation at 355 nm; for τ/ns air (Lifetime): air saturated CH3CN; for τ/ns degassed (Lifetime): degassed CH3CN
# Experimental: For the determination of the lifetimes, the samples were prepared in an air saturated and in a degassed CH3CN solution with an absorbance of 0.2 at 355 nm. This solution was irradiated in fluorescence quartz cuvettes (width 1 cm) using a NT342B Nd-YAG pumped optical parametric oscillator (Ekspla) at 355 nm. The emission signal was focused and collected at right angle to the excitation pathway and directed to a Princeton Instruments Acton SP-2300i monochromator. As a detector a R928 photomultiplier tube (Hamamatsu) has been used.
# [5] = system: mouse colon carcinoma (CT-26) cells
# Experimental: as §1, §2, §3
# [6] = read-out: IC50 480 nm (10 min, 3.1 J/cm^2), U373, irradiation 480 nm (10 min, 3.1 J/cm^2)
# [7] = read-out: IC50 dark, U373, dark, 4 h incubation
Structure (SMILES),λem/nm (Emission maximum) [1] [nm],ϕem (Luminescence Quantum Yield) [2],PI (480 nm) [3],PI (540 nm) [3],"IC50 [3, 6] [µM]","IC50 [3, 7] [µM]",τ/ns air (Lifetime) [4] [ns],τ/ns degassed (Lifetime) [4] [ns],IC50 [5] [µM]
"CN(C)c1ccc(/C=C/c2ccnc(-c3cc(/C=C/c4ccc(N(C)C)cc4)ccn3)c2)cc1.F[P-](F)(F)(F)(F)F.F[P-](F)(F)(F)(F)F.[Ru+2].c1ccc(-c2ccnc3c2ccc2c(-c4ccccc4)ccnc23)cc1.c1ccc(-c2ccnc3c2ccc2c(-c4ccccc4)ccnc23)cc1 [Compound 10, [Ru(4,7-Diphenyl-1,10-phenanthroline)2((E,E′)-4,4′-Bis[p-(N,N-dimethylamino)styryl]-2,2′-bipyridine)][PF6]2]",698,0.006,7.6,6.5,1.8 ± 0.3,13.7 ± 1.1,72,339,1.3 ± 0.3
"COc1ccc(/C=C/c2ccnc(-c3cc(/C=C/c4ccc(OC)cc4)ccn3)c2)cc1.COc1ccc(/C=C/c2ccnc(-c3cc(/C=C/c4ccc(OC)cc4)ccn3)c2)cc1.F[P-](F)(F)(F)(F)F.F[P-](F)(F)(F)(F)F.[Ru+2].c1ccc(-c2ccccn2)nc1 [Compound 5, [Ru(bipy)((E,E′)-4,4′-Bis[p-methoxystyryl]-2,2′-bipyridine)2][PF6]2]",674,0.014,>6.5,>5.6,15.3 ± 2.2,> 100,36,231,5.1 ± 1.1
"CN(C)c1ccc(/C=C/c2ccnc(-c3cc(/C=C/c4ccc(N(C)C)cc4)ccn3)c2)cc1.CN(C)c1ccc(/C=C/c2ccnc(-c3cc(/C=C/c4ccc(N(C)C)cc4)ccn3)c2)cc1.F[P-](F)(F)(F)(F)F.F[P-](F)(F)(F)(F)F.[Ru+2].c1ccc(-c2ccccn2)nc1 [Compound 4, [Ru(bipy)((E,E′)-4,4′-Bis[p-(N,N-dimethylamino)styryl]-2,2′-bipyridine)2][PF6]2]",703,0.004,>7.0,>5.3,14.3 ± 2.4,> 100,69,417,7.3 ± 1.4
"COc1ccc(C=Cc2ccnc(-c3cc(C=Cc4ccc(OC)cc4)ccn3)c2)cc1.F[P-](F)(F)(F)(F)F.F[P-](F)(F)(F)(F)F.[Ru+2].c1ccc(-c2ccnc3c2ccc2c(-c4ccccc4)ccnc23)cc1.c1ccc(-c2ccnc3c2ccc2c(-c4ccccc4)ccnc23)cc1 [Compound 11, [Ru(4,7-Diphenyl-1,10-phenanthroline)2((E,E′)-4,4′-Bis[p-methoxystyryl]-2,2′-bipyridine)][PF6]2]",663,0.027,20.6,26.4,0.9 ± 0.2,18.5 ± 1,108,679,0.5 ± 0.2
"CN(C)c1ccc(/C=C/c2ccnc(-c3cc(/C=C/c4ccc(N(C)C)cc4)ccn3)c2)cc1.F[P-](F)(F)(F)(F)F.F[P-](F)(F)(F)(F)F.[Ru+2].c1ccc(-c2ccccn2)nc1.c1ccc(-c2ccccn2)nc1 [Compound 6, [Ru(bipy)2((E,E′)-4,4′-Bis[p-(N,N-dimethylamino)styryl]-2,2′-bipyridine)][PF6]2]",697,0.005,>12.0,>9.3,8.3 ± 1.1,> 100,54,405,2.4 ± 0.5
"CN(C)c1ccc(/C=C/c2ccnc(-c3cc(/C=C/c4ccc(N(C)C)cc4)ccn3)c2)cc1.F[P-](F)(F)(F)(F)F.F[P-](F)(F)(F)(F)F.[Ru+2].c1cnc2c(c1)ccc1cccnc12.c1cnc2c(c1)ccc1cccnc12 [Compound 8, [Ru(phen)2((E,E′)-4,4′-Bis[p-(N,N-dimethylamino)styryl]-2,2′-bipyridine)][PF6]2]",698,0.004,>8.5,>7.5,11.7 ± 1.5,> 100,136,334,8.2 ± 1.1
"COc1ccc(/C=C/c2ccnc(-c3cc(/C=C/c4ccc(OC)cc4)ccn3)c2)cc1.F[P-](F)(F)(F)(F)F.F[P-](F)(F)(F)(F)F.[Ru+2].c1cnc2c(c1)ccc1cccnc12.c1cnc2c(c1)ccc1cccnc12 [Compound 9, [Ru(phen)2((E,E′)-4,4′-Bis[p-methoxystyryl]-2,2′-bipyridine)][PF6]2]",663,0.019,>40.0,>47.6,2.5 ± 0.9,> 100,193,669,1.1 ± 0.5
